In patent publication US20080003288A1, “Responsive microgel and methods related thereto” (Supratek Pharma Inc., priority 2002, published 2008):
Like-named read-outs stand apart in the source and are kept apart here.

Tests used:
[1] = Equilibrium loading (uptake) of drugs into microgels; assay type: physicochemical; details: pH 7.0, PLURONIC-PAA microgels XL = 1 mol %
Description: A microgel was suspended in Tris buffer (5 mM, pH 7.0) and 50 μL of the suspension (2 mg gel/mL buffer) was equilibrated with 3.0 mM stock solution of a drug (450 μL) for 16 h while shaking 44, 45. Shaking was performed using a KS 10 orbital shaker (BEA-Enprotech Corp., Hyde Park, Mass.) in an environmental chamber at 37° C. […] Deionized water was used as a mobile phase (flow rate, 1 mL/min, injection volume, 25 μL), and detection was carried out at 365 nm 47. […] The U values were measured in triplicate for each drug and for each temperature, pH, and gel, respectively. […] This ensured equilibrium U values. […] The beads were separated into several fractions. […] Then the beads were recovered from the suspension by using a magnet. […] The control fraction of loaded beads was subjected to the extraction without equilibration with the microgel suspension.

[2] = cited from earlier work; for Charge: valency of cationic weak base, 0 = uncharged
[3] = Dynamic dialysis without microgels: permeability of the dialysis membrane to free solutes; assay type: physicochemical; details: through dialysis membrane, no microgel, from mean K and membrane thickness (eqn 3)
Description: Drug release from microgels loaded with either DCTAF-labeled PLURONIC® or doxorubicin was studied using the dynamic dialysis technique of Gupta, P. K., et al., J. Pharm. […] A Teflon-made, thermostatted dynamic dialyzer consisted of two chambers, separated by a dialysis membrane (cellulose ester, working area A=0.35 cm^2, molecular weight cut-off 100 kDa, Spectrum Laboratories). […] Concentration of the drug in the receiver solution was monitored online by passing through a thermostatted quartz cuvette (path length 1.0 cm). […] The dialyzer was maintained at 37° C. by submersion in a water bath. The flow rate through the receiver chamber was maintained at 1.5 mL/min. […] The total volume of the receiver solution (Vr), including the chamber, cuvette, and 0.093″ tubing, was 98 mL in all experiments.
Permeability of the dialysis membrane was determined by loading a certain amount (qf^0) of either doxorubicin or PLURONIC® solution into the feed chamber and measuring the kinetics of release. […] The membrane thickness (δ) was measured microscopically in the receiver solution upon completion of the dialysis experiment and was typically in the order of 100 μm. […]
In the control experiments, we measured permeability of the dialysis membrane for doxorubicin and PLURONIC® L61 without loading into microgels. […]

Caco-2 monolayers = test: Transepithelial transport of doxorubicin across Caco-2 monolayers; assay type: in vitro ADME; details: doxorubicin 3 μM in donor, no further additive in DMEM
Description: (§1) The drug-containing samples for the transport experiments were prepared as follows. […] The suspension was centrifuged at 8000×g for 0.5 h and the supernatant was removed. The pellet was weighed and resuspended in fresh portion of serum-free DMEM of a known weight. Known amount of doxorubicin and Pluronic were dissolved in the suspension, which was allowed to equilibrate at 37° C. overnight, then snap-frozen and lyophilized. The powders were kept at −70° C. Before the transport experiments, a known amount of powder was reconstituted in DMEM and was allowed to equilibrate at 37° C. overnight.
(§2) Cells were seeded at a density of (2-4)×10^4 cells/cm^2 on top of Transwell™ polycarbonate filters (pore size, 0.4 μm; diameter, 24.5 mm; growth area, 4.71 cm^2) from Costar (Cambridge, Mass.). The cells were grown for 3 weeks prior to the transport experiments and trans-epithelial electrical resistance (TEER) was measured using a Millicell-ERS device (Millipore, Bedford, Mass.) equipped with rod-shaped electrodes. The TEER data were corrected for background readings contributed by the blank filter and culture medium. […] Then the monolayers were rinsed twice by serum-free DMEM and the transport experiment commenced by replacing the medium at either the basolateral or the apical side of the monolayer with 2.5 mL of the serum-free DMEM containing doxorubicin (with or without microgels, see Table 3). Simultaneously, the medium on the other side was refreshed. The monolayers were incubated at 37° C. in 10% CO2 atmosphere. Samples of 200 μL were taken from each side intermittently, and the drug concentration was measured in the samples withdrawn from the side opposite to the side of the drug application. The volumes withdrawn were immediately replaced with equal volumes of serum-free DMEM pre-equilibrated at 37° C. Each experiment was repeated four times. […] Additionally, the concentration of doxorubicin in the medium was measured by HPLC using a Capcell Pak UG C18 (100×4.6 mm I.D., particle size 5 μm) column and a Universal Guard Cartridge System (Phenomenex, Torrance, Calif.). […] Water/acetonitrile (70/30, pH 4) was used as the mobile phase (flow rate, 1 mL/min, injection volume, 5 μL), and detection was carried out using an Argon Ion laser (488 nm, 10 mW). […] Temperature was controlled to ±0.05 C using a circulating water bath. The platinum Wilhelmy plate was washed with acetone, rinsed in Milli-Q water, and flamed until red-hot before each measurement.
(§3) The apparent permeability of the Caco-2 monolayer (Pa, cm/s) was calculated from the linearized time course of the doxorubicin fractional transport (dI1t/dt in the fluorescence assay and dCt/dt in the HPLC assay) normalized to the effective surface area of the filter (A=4.71 cm^2) and the initial fluorescence emission intensity reading (Io) or initial doxorubicin concentration (Co) in the donor (basolateral or apical) compartment of volume V=2.5 cm^3: [formula]

[4] = as above; assay type: in vitro ADME; details: human
Description: as §1, §2, §3

Uptake ± SD ([1]; 20° C.) | effective diffusion coefficient (D) [3] | Pa, a→b, fluorescence assay (Caco-2 monolayers) | Papp A→B at 3 μM ([4]; Caco-2, doxorubicin 3 μM in donor, no further additive in DMEM, read-out: Pa, a→b, HPLC assay) [×10⁻⁶ cm/s] | Papp B→A at 3 µM ([4]; Caco-2, doxorubicin 3 μM in donor, no further additive in DMEM, read-out: apparent permeability, b→a, HPLC assay) [×10⁻⁶ cm/s] | Papp B→A at 3 µM ([4]; Caco-2, doxorubicin 3 μM in donor, no further additive in DMEM, read-out: apparent permeability, b→a, fluorescence assay) [×10⁻⁶ cm/s] | efflux ratio ([4]; Caco-2, no additives, read-out: active efflux exceeding the passive influx) | SMILES | Uptake ± SD ([1]; 37° C.) | Log P (n-octanol-to-water partition coefficient) [2] | Charge [2]
2.97 ± 0.33 (20° C.) mmol/g | 2.4×10^−5 cm^2/s | (6.07±0.04)×10^−7 cm/s | 0.579 | 2.75 | 2.81 | 4.6 | COc1cccc2c1C(=O)c1c(O)c3c(c(O)c1C2=O)C[C@@](O)(C(=O)CO)C[C@@H]3O[C@H]1C[C@H](N)[C@H](O)[C@H](C)O1 [Doxorubicin] | 2.26 ± 0.37 (37° C.) mmol/g | 1.85 | 1
 |  |  |  |  |  |  | CO[C@@]12[C@H](COC(N)=O)C3=C(C(=O)C(C)=C(N)C3=O)N1C[C@@H]1N[C@@H]12 [Mitomycin C] | 5.31 ± 1.86 (37° C.) mmol/g |  | 3
 |  |  |  |  |  |  | O=C1c2c(O)ccc(O)c2C(=O)c2c(NCCNCCO)ccc(NCCNCCO)c21 [Mitoxantrone] | 3.70 ± 0.56 (37° C.) mmol/g |  | 
